Assay results reported in publication PMC8053989 (Proceedings of the National Academy of Sciences of the …, 2021).
Like-named read-outs stand apart in the source and are kept apart here.

Assays:
SARS-CoV-2 replicon [1] = assay: microbe, parasite or virus in culture; type: cell-based; conditions: Calu-1 cells, compound alone
SARS-CoV-2 replicon [2] = assay: microbe, parasite or virus in culture; type: cell-based; conditions: Huh-7.5 cells
SARS-CoV-2 replicon [3] = assay: microbe, parasite or virus in culture; type: cell-based; conditions: for effect of p-gp inhibitors on potency: in the presence of CP-100356 or elacridar
SARS-CoV-2 replicon [4] = assay: microbe, parasite or virus in culture; type: cell-based
SARS-CoV-2 replicon [5] = assay: microbe, parasite or virus in culture; type: cell-based; conditions: A549 cells, compound alone
SARS-CoV-2 replicon [6] = type: cell-based; conditions: concentrations up to 2 µM
293T cells = assay: Cytotoxicity assay (CellTiter-Glo) in replicon-transfected cells; conditions: range of concentrations tested
[7] = system: wild-type (wt) SARS-CoV-2; design: method as in doi:10.1101/2020.08.28.272880; conditions: ACE2 stably transfected A549 cells; read-out: EC50 against wild-type SARS-CoV-2 infection; cited from earlier work
[8] = Severe acute respiratory syndrome coronavirus 2
[9] = Severe acute respiratory syndrome coronavirus 2, Huh7.5
[10] = Severe acute respiratory syndrome coronavirus 2, Vero cells, compound alone
[11] = Severe acute respiratory syndrome coronavirus 2, HEK-293T, 30 h, read-out: EC50

With Cc1cccc(/C=N/Nc2cc(N3CCOCC3)nc(OCCc3ccccn3)n2)c1 [Apilimod] as the compound, how does the EC50 (SARS-CoV-2 replicon [1]; [8]) read?
Its EC50 is greater than 42000 nM.

What about the EC50 (SARS-CoV-2 replicon [2]; [9]) of the same compound?
Its EC50 is greater than 42000 nM.

For CN(C)C(=O)COC(=O)Cc1ccc(OC(=O)c2ccc(NC(=N)N)cc2)cc1 [Camostat], which EC50 (SARS-CoV-2 replicon [3]; [10]) is on record?
The EC50 was greater than 42000 nM.

And the EC50 (SARS-CoV-2 replicon [4]; [11])?
Its EC50 is greater than 42000 nM.

What about the EC50 (SARS-CoV-2 replicon [5]; [8]) of the same compound?
Its EC50 is greater than 42000 nM.

What about the EC50 (SARS-CoV-2 replicon [1]; [8]) of the same compound?
Its EC50 is greater than 42000 nM.

Which results are given for COc1cc2c(cc1OC)CN(CCc1ccc(NC(=O)c3cccc4c(=O)c5cccc(OC)c5[nH]c34)cc1)CC2 [Elacridar]?
EC50 (SARS-CoV-2 replicon [3]; [10]): > 4670 nM; EC50 (SARS-CoV-2 replicon [5]; [8]): > 4670 nM; antiviral activity when tested alone (SARS-CoV-2 replicon [6]): No antiviral activities were observed; EC50 (SARS-CoV-2 replicon [1]; [8]): > 8400 nM

With CC(C)C[C@H](NC(=O)OCc1ccccc1)C(=O)N[C@H](C=O)C[C@@H]1CCNC1=O [GC373] as the compound, how does the EC50 (SARS-CoV-2 replicon [3]; Vero cells, compound alone) read?
Its EC50 is 309 ± 43 nM.

And the “effect of p-gp inhibitors on potency” value (SARS-CoV-2 replicon [3]; Vero cells)?
The value was “slight increase of the activities”.

What about the EC50 (SARS-CoV-2 replicon [4]; read-out: EC50) of the same compound?
Its EC50 is 20.3 ± 5.3 nM.

What about the EC50 (SARS-CoV-2 replicon [5]) of the same compound?
The EC50 was 539 ± 69 nM.

What about the EC50 (SARS-CoV-2 replicon [1]) of the same compound?
Its EC50 is 30.1 ± 5.8 nM.

What does the source list for CC(C)C[C@H](NC(=O)OCc1ccccc1)C(=O)N[C@@H](CC1CCNC1=O)C(O)S(=O)(=O)O (stereo partly drawn) [GC376]?
EC50 (SARS-CoV-2 replicon [3]; Vero cells, compound alone): 237 ± 74 nM; EC50 (SARS-CoV-2 replicon [4]; read-out: EC50): 20.8 ± 5.4 nM; EC50 (SARS-CoV-2 replicon [4]; read-out: potency (EC50) in inhibiting SARS-CoV-2 replicon replication, percent GFP signal): 22 nM; EC50 (SARS-CoV-2 replicon [4]; read-out: potency (EC50) in inhibiting SARS-CoV-2 replicon replication, percent luciferase activity): 29.2 nM; EC50 (SARS-CoV-2 replicon [5]): 570 ± 182 nM; EC50 (SARS-CoV-2 replicon [1]): 19.8 ± 2 nM; EC50 (SARS-CoV-2 replicon [2]): 19.4 ± 4.9 nM

For CC(C)C[C@H](NC(=O)OCc1ccccc1)C(=O)N[C@@H](C[C@@H]1CCNC1=O)C(O)S(=O)(=O)[O-].[Na+] (stereo partly drawn) [GC376], which “effect of p-gp inhibitors on potency” value (SARS-CoV-2 replicon [3]; Vero cells) is on record?
Its value is “slight increase of the activities”.

What about the cytotoxicity (293T cells) of the same compound?
The cytotoxicity was “No cytotoxicity was detected”.

With CCC(CC)COC(=O)[C@H](C)N[P@](=O)(OC[C@H]1O[C@@](C#N)(c2ccc3c(N)ncnn23)[C@H](O)[C@@H]1O)Oc1ccccc1 [GS-5734] as the compound, how does the EC50 (SARS-CoV-2 replicon [3]; [10]) read?
The EC50 was 2240 nM.

And the EC50 (SARS-CoV-2 replicon [4]; [11])?
Its EC50 is 15.6 ± 5.1 nM.

What about the EC50 (SARS-CoV-2 replicon [5]; [8]) of the same compound?
Its EC50 is 184 nM.

What about the EC50 [7] of the same compound?
The EC50 was 442 nM.

What about the EC50 (SARS-CoV-2 replicon [1]; [8]) of the same compound?
The EC50 was 31.5 ± 23 nM.

What about the EC50 (SARS-CoV-2 replicon [2]; [9]) of the same compound?
The EC50 was 18.9 nM.

What does the source list for N#C[C@@]1(c2ccc3c(N)ncnn23)O[C@H](CO)[C@@H](O)[C@H]1O [GS-441524]?
EC50 (SARS-CoV-2 replicon [3]; [10]): 302 ± 20 nM; EC50 (SARS-CoV-2 replicon [4]; [11]): 603 ± 131 nM; EC50 (SARS-CoV-2 replicon [4]; Severe acute respiratory syndrome coronavirus 2, HEK-293T, 30 h, read-out: potency (EC50) in inhibiting SARS-CoV-2 replicon replication, percent GFP signal): 645 nM; EC50 (SARS-CoV-2 replicon [4]; Severe acute respiratory syndrome coronavirus 2, HEK-293T, 30 h, read-out: potency (EC50) in inhibiting SARS-CoV-2 replicon replication, percent luciferase activity): 503 nM; EC50 (SARS-CoV-2 replicon [5]; [8]): 1470 nM; cytotoxicity (293T cells): No cytotoxicity was detected; EC50 (SARS-CoV-2 replicon [1]; [8]): 1330 nM; EC50 (SARS-CoV-2 replicon [2]; [9]): 1030 nM

With CC(C)(C)NC(=O)N[C@H](C(=O)N1C[C@H]2[C@@H]([C@H]1C(=O)NC(CC1CCC1)C(=O)C(N)=O)C2(C)C)C(C)(C)C (stereo partly drawn) [MK-3034] as the compound, how does the EC50 (SARS-CoV-2 replicon [3]; [10]) read?
The EC50 was 16600 nM.

And the “effect of p-gp inhibitors on potency” value (SARS-CoV-2 replicon [3]; Vero cells)?
Its value is “slight increase of the activities”.

And the EC50 (SARS-CoV-2 replicon [4]; [11])?
The EC50 was 3550 nM.

And the EC50 (SARS-CoV-2 replicon [5]; [8])?
Its EC50 is 19900 nM.

And the EC50 (SARS-CoV-2 replicon [1]; [8])?
Its EC50 is 4790 nM.

For N=C(N)c1ccc2cc(OC(=O)c3ccc(N=C(N)N)cc3)ccc2c1 [Nafamostat], which EC50 (SARS-CoV-2 replicon [3]; Severe acute respiratory syndrome coronavirus 2, Vero C1008, Vero E6 cells (so in the source)) is on record?
Its EC50 is greater than 42000 nM.

And the EC50 (SARS-CoV-2 replicon [4]; [11])?
Its EC50 is greater than 42000 nM.

And the EC50 (SARS-CoV-2 replicon [5]; [8])?
Its EC50 is greater than 42000 nM.

What about the EC50 (SARS-CoV-2 replicon [1]; [8]) of the same compound?
Its EC50 is greater than 42000 nM.

What does the source list for COc1cccc2[nH]c(C(=O)N[C@@H](CC(C)C)C(=O)N[C@@H](C[C@@H]3CCNC3=O)C(=O)CO)cc12 [PF-00835231]?
EC50 (SARS-CoV-2 replicon [3]; Vero cells, compound alone): 2190 nM; effect of p-gp inhibitors on potency (SARS-CoV-2 replicon [3]; Vero cells): dramatically increased the potency; EC50 (SARS-CoV-2 replicon [4]; read-out: EC50): 75.2 ± 19.1 nM; EC50 (SARS-CoV-2 replicon [5]): 76.3 ± 16.2 nM; EC50 (SARS-CoV-2 replicon [1]): 24.7 ± 3.8 nM; EC50 (SARS-CoV-2 replicon [2]): 175 ± 56 nM

Which EC50 (SARS-CoV-2 replicon [3]; [10]) does the source give for CC(C)C[C@H](NC(=O)c1cc2ccccc2o1)C(=O)N[C@H]1CC[C@@H](C)N(S(=O)(=O)c2ccccn2)CC1=O [Relacatib] here?
The EC50 was greater than 42000 nM.

What about the EC50 (SARS-CoV-2 replicon [4]; [11]) of the same compound?
Its EC50 is greater than 42000 nM.

And the EC50 (SARS-CoV-2 replicon [5]; [8])?
The EC50 was greater than 42000 nM.

What about the EC50 (SARS-CoV-2 replicon [1]; [8]) of the same compound?
The EC50 was greater than 42000 nM.
